Experimental data as given in publication PMC4745783, “The HGF inhibitory peptide HGP-1 displays promising in vitro and in vivo efficacy for targeted cancer therapy” (Oncotarget, 2015).
Entries after “also recorded” stand apart in the source; their conditions may differ. Where no end group is shown, it is not given here. The star is where a group is joined. FITC = O=C1OC2(c3ccc(O)cc3Oc3cc(O)ccc32)c2ccc(NC(=S)*)cc21

Key:
HGF [1] = assay: ELISA, peptides coated on fluorescence plates and incubated with HGF; format: binding, human; settings: peptide coated, incubated with HGF
Procedure: (§1) To pre-assess the binding ability of peptide to HGF, peptides were coated on the fluorescence plates and incubated with HGF. The well coated with HGP-1 had at least 1500 times higher RFU than the one with SP-H1. […] In order to obtain a precise affinity data of HGP-1, the affinity and kinetics of HGP-1 against HGF was detected by SPR technique (Figure 3a). HGF was immobilized on the surface of a CM5 chip. […] Different concentrations of HGP-1 were injected over the surface of the chip followed by dissociation in buffer without peptide.

HGF [2] = assay: Binding of HGF to peptides displayed on bacteria, regular vs stringent washing, flow cytometry; parameters: species or system human; settings: PE-A fluorescence; for binding to HGF in washed group: displayed on bacteria, washed (PBS pH 7.4, 3 times, 4°C, 10 min) vs regular washing
Procedure: Peptide physicochemical properties were preliminarily analyzed with bacteria clones. To evaluate the binding ability of peptides on the surface of bacteria to HGF, the PE-A fluorescence intensity of each clone with different wash procedures were determined by flow cytometry. Bacteria clones undergoing regular or stringent washing procedures after incubation with HGF were prepared. […] Bacteria clones were subcultured and induced as described before. Then, 10^7 bacteria of each clone were incubated with biotinylated HGF referring to sorting procedure. After incubating with HGF, bacteria were divided into two groups. The ‘original’ group was washed referring to sorting procedure, and the ‘washed’ group would have a tough washing. After centrifuged at 3000 × g for 5 minutes, bacteria in ‘washed’ group were resuspended by 1 mL phosphate buffered saline (PBS, PH 7.4) and inverted at 4°C for 10 minutes. The washing steps were repeated for 3 times. Samples from two groups were analyzed by flow cytometry.

MDA-MB-435s cells [3] = assay: Wound healing (scratch) migration assay with HGF; format: cell-based, human; settings: HGF 0.625 nM, 2-day treatment
Procedure: MDA-MB-435s cells were plated on a 24-well plate (1 × 10^5 cells/well), grown to an 80–90% confluent cell monolayer, and serum-starved for 24 hours. Wounds were scratched gently with tip of a plastic pipet and washed twice with PBS. Subsequently, HGF (0.625 nM) alone or coupled with peptides at the concentrations of 61.5 nM and 615 nM were added into the wells for 2 days treatment. Each well was photographed at 10 × magnification with light microscope before and after peptide treatment. The cell migration capabilities were assessed by calculating the width alteration of the wound area by Photoshop. The percentage of cell migration followed the equation: Percent migration=width before treatment-width after treatment/width before treatment×100%

MDA-MB-435s cells [4] = assay: Wound healing assay without HGF (non-specific inhibition); format: cell-based, human; settings: 61.5 nM and 615 nM; one day, medium with 10% FBS; n = 3
Procedure: Wound healing assay was applied to evaluate the inhibitory effect of peptides to cell migration after one-day incubation with peptides at different concentrations in medium with 10% FBS.

A549 cells [5] = format: cell-based, human
Procedure: A549 cells were seeded in a 96-well plate at a density of 7000 cells per well. After overnight culture, cells were starved with serum free DMEM medium for 48 hours. […] After cultured for 4 days, the cell culture medium was changed with fresh medium containing 0.5 mg/mL 3-(4, 5-Dimethylthiazol-2-yl)-2, 5-diphenyltetrazolium bromide (MTT) solution for another 4 hours incubation at 37°C, in 5% CO2. Then, medium was removed and cells were lysed with dimethyl sulfoxide. The absorption of the solution in each well was measured at 490 nm on a VECTOR X4 Multilabel Plate Reader. IC50 value was also determined and calculated by GraphPad Prism 5.

human full length HGF = target: T1, human full length HGF (Homo sapiens, UniProt P14210); assay: SPR affinity and kinetics; format: binding; settings: Biacore X100, CM5 chip
T1 construct: purchased Sino Biological Inc. 10463- NHAC-A
Procedure: as §1
Kinetic (ka and kd) and affinity constant (KD) of soluble peptide were determined by surface plasmon resonance technique on a Biacore X100 instrument (GE healthcare). The research-grade CM5 sensor chip was activated following the process which was recommended in the amino coupling reagent kit. Human full length HGF was dissolved in PBS and diluted to a suitable concentration by 20 mM NaCOOH buffer (pH4.0) and immobilized on the chip, and 2000 resonance units were immobilized. The remaining reactive groups were inactivated by ethanolamine. The peptide was dissolved and diluted by HBS-EP ([…], 150 mM NaCl, 3 mM EDTA-Na2 and 0.005% P20, pH7.4). Samples composed of concentrations ranging from 0 to 100 μM of peptides were injected over the protein surface. […] Ka, Kd and KD were calculated by Biacore X100 Evaluation software.

A549 cells [6] = assay: MTT cytotoxicity in HGF-free environment; settings: 61.5 nM, 615 nM, 3.075 μM; 4-day, medium with 10% FBS; n = 4
Procedure: MTT assay was also used to assess the cytotoxicity of peptides after 4-day incubation with peptides at different concentrations in the medium with 10% FBS. The cells were seeded in the 96-well plate at density of 2000 cells per well.

[7] = target: T2, Recombinant human full length HGF (human, UniProt P14210 32-728); assay: SPR; Biacore X100; HGF immobilised on a CM5 chip by amine coupling (2000 RU); peptide 0 to 100 μM in HBS-EP pH 7.4, 30 μL/min, 2 minutes injection, 8 minutes dissociation; settings: both partners purified
T2 construct: also called hepatocyte growth factor; source: bought: Sino Biological Inc

[8] = target: T2, Recombinant human full length HGF; assay: cell-based or functional assay

T2 sequence (P14210 32-728): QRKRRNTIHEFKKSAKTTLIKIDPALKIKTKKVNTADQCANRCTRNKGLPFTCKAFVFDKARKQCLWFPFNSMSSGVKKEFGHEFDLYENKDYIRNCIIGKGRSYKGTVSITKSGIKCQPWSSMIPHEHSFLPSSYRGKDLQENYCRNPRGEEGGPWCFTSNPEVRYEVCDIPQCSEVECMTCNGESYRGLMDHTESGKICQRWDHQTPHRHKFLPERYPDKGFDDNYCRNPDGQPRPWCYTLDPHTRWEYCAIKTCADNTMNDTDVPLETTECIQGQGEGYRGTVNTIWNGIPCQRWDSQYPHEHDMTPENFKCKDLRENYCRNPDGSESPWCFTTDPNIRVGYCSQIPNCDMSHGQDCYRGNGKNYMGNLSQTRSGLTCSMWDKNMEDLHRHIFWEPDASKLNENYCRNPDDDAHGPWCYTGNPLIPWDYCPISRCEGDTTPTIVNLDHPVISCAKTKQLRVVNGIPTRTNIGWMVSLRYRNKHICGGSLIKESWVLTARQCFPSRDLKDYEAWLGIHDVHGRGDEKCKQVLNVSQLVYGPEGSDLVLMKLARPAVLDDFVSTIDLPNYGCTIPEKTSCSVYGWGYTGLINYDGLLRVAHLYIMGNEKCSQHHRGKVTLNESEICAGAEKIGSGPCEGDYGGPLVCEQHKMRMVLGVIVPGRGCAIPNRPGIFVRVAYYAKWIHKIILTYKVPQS
T1 sequence (P14210 32-728): as above

## TLYEVDLREWCAGIVG [HGP-2]
HGF [1]
  RFU relative to SP-H1 coated well: 700 times
HGF [2]
  binding to HGF in washed group: had an obvious reduction
MDA-MB-435s cells [3]
  inhibitory effect on cell migration: inhibited; also recorded: displayed a similar effect on MDA-MB-435s
MDA-MB-435s cells [4]
  inhibitory effect on migration without HGF: no obvious inhibitory effect
A549 cells [5]; 61.5 nM, 615 nM, 3.075 μM, HGF, 4-day treatment, n = 3
  inhibitory effect on cell proliferation: inhibited

## TYFTWWELSPGCEEH [HGP-3]
HGF [2]; flow cytometry
  binding capability to HGF when displayed on the surface of bacteria, compared with HGP-2: higher binding capability to HGF compared with HGP-2
HGF [2]
  binding to HGF in washed group: bound to their targets as well as the regular ones

## HRGLKWEIVPWSGCG [HGP-1]
Human full length HGF; HBS-EP pH 7.4, 30 μL/min, 2 min injection, read-out: ka
  kon: 698 M⁻¹ s⁻¹
Human full length HGF; HBS-EP pH 7.4, 8 min dissociation, printed kb
  kb: 0.001243 s⁻¹
A549 cells [5]; 48 h
  IC50: 496 µM
A549 cells [6]
  cytotoxicity to cell proliferation in HGF-free environment: did not exhibit detectable cytotoxicity

B1: HGF binding peptide-1, soluble synthetic peptide (peptide)
peptide: {FITC}-HRGLKWEIVPWSGCG
notes: the peptide of bacteria clone 1, synthesized free of bacteria; The methods say in general that FITC was labeled at the N-terminal of the peptides; also called HGP-1; FITC-labeled HGP-1; source: synthetic peptide (Shanghai Bootech Bioscience & Technology Co., Ltd.)
[7]
  Kd: 1.73 µM
  koff: 0.00124 s⁻¹
  kon: 698 M⁻¹ s⁻¹
[8]
  IC50 of inhibition of HGF (1 nM)-mediated A549 proliferation, MTT assay, 4 days: 496 µM
